This note sets out measurements from ChEMBL document CHEMBL1255402, “Staphylococcal cassette chromosome mec-like element in Macrococcus caseolyticus” (2010).

≈ marks a conversion by molar mass, not a printed value.

Type in all cases: functional
Details in all cases: Macrococcoides caseolyticum

In experiment [1] the test system is Macrococcus caseolyticus. Nature of the experiment: Antimicrobial activity against multidrug-resistant Macrococcus caseolyticus JCSC5402 containing plasmid pMCCL2 which carries transposon containing (mecA(m)-mecR1(m)-mecI(m)-blaZ(m)) complex isolated from chicken by agar dilution method.
Experiment [2] deals with Macrococcus caseolyticus. Nature of the experiment: Antimicrobial activity against multidrug-resistant Macrococcus caseolyticus JCSC7096 containing plasmid pMCCL2 which carries transposon containing (mecA(m)-mecR1(m)-mecI(m)-blaZ(m)) complex isolated from chicken by agar dilution method.
Experiment [3] deals with Macrococcus caseolyticus. Nature of the experiment: Antimicrobial activity against multidrug-resistant Macrococcus caseolyticus JCSC7528 containing plasmid pMCCL2 which carries transposon containing (mecA(m)-mecR1(m)-mecI(m)-blaZ(m)) complex isolated from chicken by agar dilution method. (In general: In agar dilution, organisms are placed on agar that contains the substance at set levels.)

For experiment [4], the system named is Macrococcus caseolyticus. Nature of the experiment: Antimicrobial activity against Macrococcus caseolyticus ATCC 13548T by agar dilution method.
The test system of experiment [5] is Macrococcus caseolyticus. As to the kind of experiment: Antimicrobial activity against Macrococcus caseolyticus ATCC 51834 by agar dilution method.
The subject of experiment [6] is Macrococcus caseolyticus. Nature of the experiment: Antimicrobial activity against Macrococcus caseolyticus ATCC 51835 by agar dilution method.
The test system of experiment [7] is Macrococcus caseolyticus. As to the kind of experiment: Antimicrobial activity against Macrococcus caseolyticus ATCC 29750 by agar dilution method.

Broadly, the MIC is the least concentration at which growth counts as inhibited. High values mean a less susceptible organism, low ones a more susceptible organism. As to `Cc1onc(-c2ccccc2)c1C(=O)N[C@@H]1C(=O)N2[C@@H]1SC(C)(C)[C@@H]2C(=O)O` [OXACILLIN], the MIC in experiment [1] worked out at 128 µg/mL (≈ 319 µM); in experiment [2], 64 µg/mL (≈ 159 µM); in experiment [3], 32 µg/mL (≈ 79.7 µM); in experiment [4] it was 0.125 µg/mL (≈ 0.311 µM); in experiment [5] it was 0.125 µg/mL (≈ 0.311 µM); in experiment [6] it was 0.25 µg/mL (≈ 0.623 µM). This compound also gave a minimal inhibitory concentration (MIC) in experiment [7] of 0.125 µg/mL (≈ 0.311 µM).
